US4792607A, “5-fluoro-3,4-dihydro-2,4-dioxo-N-(3-indolyl)-1(2H)-pyrimidinecarboxamides” (Chisso Corporation, priority 1986, dated 1988)

Experiments:
[1] = Acute Toxicity Test (LD50); conditions: in vivo
[2] = tested on: Leukosis cells of P-388 mouse; assay: Antitumor Effect Test (P-388 leukemia grafted into the abdomen of mice, ratio of survival days T/C); type: in vivo; conditions: dosed into the abdomen successively for 5 days, P-388 in CDF1 or BDF1 mouse
Source text: [Antitumor Effect Test] Leukosis cells of P-388 mouse of 1×10^6 /mouse were grafted into the abdomen of CDF1 or BDF1 mouse, and the fixed quantity of the compound of this invention was successively dosed into the abdomen for 5 days. Each 6 mice per dose level as test groups and 30~33 mice as control groups were used. [formula]

[3] = Mus musculus, P388, ip, 120 h, 30 mg/kg

Structure (SMILES) | LD50 [1] [mg/kg] | response vs control in vivo at 15 mg/kg ([2]; Mus musculus, P388, ip, 120 h) [%] | response vs control in vivo at 30 mg/kg [2, 3] [%] | response vs control in vivo at 60 mg/kg ([2]; Mus musculus, P388, ip, 120 h) [%] | response vs control in vivo at 120 mg/kg ([2]; Mus musculus, P388, ip, 120 h) [%] | other results
O=C(NCCCCC[n+]1ccccc1)n1cc(F)c(=O)[nH]c1=O [Experiment 16, 5-Fluoro-3,4-dihydro-2,4-dioxo-N-[5-(1-pyridinio)pentyl]-1(2H-pyrimidinecarboxamide bromide] | 60 | 120 | 120 |  |  | response vs control in vivo at 7.5 mg/kg ([2]; Mus musculus, P388, ip, 120 h): 112%
O=C(NCCCCCCNC(=O)n1cc(F)c(=O)[nH]c1=O)NNC(=O)c1cccnc1 [Experiment 22] | > 400 |  | 113 | 113 | 128 | response vs control in vivo at 400 mg/kg ([2]; Mus musculus, P388, ip, 120 h): 127%
O=C(NCC[n+]1ccccc1)n1cc(F)c(=O)[nH]c1=O [Experiment 14, 5-Fluoro-3,4-dihydro-2,4-dioxo-N-[2-(1-pyridino)ethyl]-1(2H-pyrimidinecarboxamide chloride] | 120 | 169 | 171 | 215 |  | 
O=C(NCCC[n+]1ccccc1)n1cc(F)c(=O)[nH]c1=O [Experiment 17, 5-Fluoro-3,4-dihydro-2,4-dioxo-N-[3-(1-pyridinio)propyl]-1(2H-pyrimidinecarboxamide chloride] | 240 |  | 130 | 138 |  | 
CN(C)CCCNC(=O)NCCCCCCNC(=O)n1cc(F)c(=O)[nH]c1=O [Experiment 21] | 120 | 120 | 142 | 120 |  | 
O=C(NCNC(=O)n1cc(F)c(=O)[nH]c1=O)c1ccccc1 [Experiment 13] | 240 |  | 117 | 132 | 147 | 
O=C(NCCCCCCNC(=O)n1cc(F)c(=O)[nH]c1=O)Nc1ccccn1 [Experiment 19] | > 240 |  |  | 154 | 164 | 
O=C(Nc1c[nH]c2ccccc12)n1cc(F)c(=O)[nH]c1=O [Experiment 3] | > 400 |  | 123 | 135 | 136 | response vs control in vivo at 400 mg/kg ([2]; Mus musculus, P388, ip, 120 h): 153%
NS(=O)(=O)c1ccc(NC(=O)NCCCCCCNC(=O)n2cc(F)c(=O)[nH]c2=O)cc1 [Experiment 20] | > 240 |  | 95 | 110 | 111 | response vs control in vivo at 240 mg/kg ([2]; Mus musculus, P388, ip, 120 h): 112%
O=C(Nc1ccc[n+]([O-])c1)n1cc(F)c(=O)[nH]c1=O [Experiment 2] | 240 | 127 | 149 | 166 |  | 
O=C(NCCCCCCNC(=O)n1cc(F)c(=O)[nH]c1=O)NNC(=O)c1ccncc1 [Experiment 23] | > 240 |  | 109 | 119 | 124 | response vs control in vivo at 240 mg/kg ([2]; Mus musculus, P388, ip, 120 h): 138%
O=C(NCCCCCCNC(=O)n1cc(F)c(=O)[nH]c1=O)Nc1cccnc1 [Experiment 18] | > 30 | 139 |  |  |  | response vs control in vivo at 0.47 mg/kg ([2]; Mus musculus, P388, ip, 120 h, 0.47 mg/kg): 110%; response vs control in vivo at 0.94 mg/kg ([2]; Mus musculus, P388, ip, 120 h, 0.94 mg/kg): 115%; response vs control in vivo at 1.87 mg/kg ([2]; Mus musculus, P388, ip, 120 h, 1.87 mg/kg): 124%; response vs control in vivo at 3.75 mg/kg ([2]; Mus musculus, P388, ip, 120 h, 3.75 mg/kg): 131%; response vs control in vivo at 7.5 mg/kg ([2]; Mus musculus, P388, ip, 120 h): 138%
O=C(Nc1cccs1)n1cc(F)c(=O)[nH]c1=O [Experiment 1] | > 240 |  | 129 | 138 |  | T/C (ratio of survival days) ([2]; 30 mg/kg): 129%
O=C(NCc1c[nH]c2ccccc12)n1cc(F)c(=O)[nH]c1=O [Experiment 4] | > 400 |  | 117 | 115 | 118 | response vs control in vivo at 400 mg/kg ([2]; Mus musculus, P388, ip, 120 h): 128%
